From publication PMC11094793, “Discovery of LLC0424 as a Potent and Selective in Vivo NSD2 PROTAC Degrader” (Journal of Medicinal Chemistry, 2024)

Assays:
RPMI-8402 cells = experiment: Cell viability assay (CellTiter-Glo, 7 days), RPMI-8402; type: cell-based, human; conditions: Homo sapiens, 168 h, read-out: IC50 (growth, cell viability)
Description: Cells were plated in 50 μL of the corresponding media in 96-well plates. A 2-fold dilution series of 2* concentrated LLC0424 was prepared in a medium with the highest concentration being 60 μM. Then 50 μL of the 2× compound-containing mixture was added to each well with 6 replicates for each concentration, reaching 1× concentration, with the highest concentration being 30 μM. The plate was incubated for 7 days. At the end point, the CellTiter-Glo assay (Promega) was then performed according to the manufacturer’s instruction to determine cell proliferation. The luminescence signal intensity of each well was acquired on an Infinite M1000Pro microplate reader and the data was analyzed using GraphPad Prism software (GraphPad Software).

[1] = tested on: CRBN neo-substrates IKZF1, IKZF3, GSPT1, and CK-1α; experiment: Selectivity immunoblotting in SEM cells: CRBN neo-substrates; type: cell-based, human; conditions: 2 μM, 8 h
Description: (§1) We conducted a global proteomic assay using tandem mass tags (TMT) labeled mass-spectrometry to unbiasedly quantify the protein change upon LLC0424 treatment in VCaP and RPMI-8402 cells. […] We further used SEM cell line to cross-validate the selectivity of LLC0424 for NSD2 over NSD1 and NSD3 as well as CRBN neo-substrates IKZF1, IKZF3, GSPT1, and CK-1α using immunoblotting. […] When we increased the treatment time of LLC0424 in SEM cells, we observed mild decrease of GSPT1 from 12 h (SI, Figure S3F).
(§2) After treatment, the cultured cells were collected and rinsed with phosphate-buffered saline (PBS) in room temperature. The cells were treated with RIPA buffers (ThermoFisher Scientific) supplemented with Halt Protease and Phosphatase Inhibitor Cocktail (ThermoFisher Scientific). After sonication and centrifugation, the total amount of protein in the cell lysates was measured by Pierce Bovine Serum Albumin Standard Pre-Diluted Set (ThermoFisher Scientific). After mixed with LDS-sample buffer (Invitrogen) supplemented with Sample Reducing Agent (Invitrogen) and heated in 70 °C for 10 min, equal amount of protein was loaded into NuPAGE 4–12%, Bis-Tris Protein Gel (ThermoFisher Scientific) or NuPAGE 3–8%, Tris-Acetate Protein Gel (ThermoFisher Scientific), and blotted with primary antibodies. […]

[2] = tested on: NSD2-overexpressed SEM cells; experiment: Viability of NSD2-overexpressed versus parental SEM cells; type: cell-based, human; conditions: 2 μM LLC0424, 9 days, CTG assay
Description: NSD2 is the primary methyltransferase that transfers dimethyl to H3K36 in ALL with NSD2 gain-of-function mutation. Therefore, the effects of LLC0424 on H3K36me2 was evaluated in SEM and RPMI-8402 cells. […] Meanwhile, LLC0424 treatment also led to downregulation of H3K36Me2 in RPMI-8402 cells within 24 h (Figure 6B). […] We also conducted a colony formation assay to evaluate the effect of LLC0424 on the stem cell-like property of the leukemia cells. […]
Figure S4. […] (A) SEM or RPMI-8402 cells were treated with 2 µM LLC0424, degrader 6, degrader 7, or DMSO for 9 days and quantified for cell viability by CellTiter-Glo (CTG) assay at different days. Data are reported as the mean of five independent experiments ± SD; (B) RNA sequencing of SEM cells treated with LLC0424N or DMSO; (C) Immunoblotting of NSD2, and H3 in parental and NSD2-overexpression SEM cell lines; (D) parental or NSD2 overexpression SEM cells were treated with DMSO or 2 µM LLC0424 for 9 days and quantified for cell viability by CTG assay. Data are reported as the mean of four independent experiments ± SD; (E) VCaP cells and 22RV1 cells were treated with DMSO, 2 µM LLC0424, or 2 µM LLC0424N for 18 days and quantified for cell viability by CTG assay at different days. […]

GSPT1 = molecular target: T1, GSPT1 (Homo sapiens, UniProt P15170); experiment: GSPT1 level by proteomics and immunoblotting; type: cell-based; conditions: 2 μM
T1 construct: endogenous in cells; host or cells: RPMI-8402, SEM, VCaP
Description: as §1
NSD2 is the primary methyltransferase that transfers dimethyl to H3K36 in ALL with NSD2 gain-of-function mutation. Therefore, the effects of LLC0424 on H3K36me2 was evaluated in SEM and RPMI-8402 cells. […] Meanwhile, LLC0424 treatment also led to downregulation of H3K36Me2 in RPMI-8402 cells within 24 h (Figure 6B). […] We also conducted a colony formation assay to evaluate the effect of LLC0424 on the stem cell-like property of the leukemia cells. […] As LLC0424 leads to strong degradation of both NSD2-L and NSD2-S, the phenotypic changes upon LLC0424 treatment result from complete inactivation of NSD2 activity, including adaptor-like function of NSD2-S and SET-domain dependent enzymatic function of NSD2-L. The specific contributions of NSD2 isoforms warrant future investigation. To characterize the genes affected by LLC0424 treatment, we performed global transcriptome analysis of SEM cells treated by DMSO, LLC0424, or LLC0424N. LLC0424 treatment led to significant changes in the transcriptome of SEM cells with over 326 differentially expressed genes. […] We further explored the contribution of NSD2 loss to the phenotype we observed in SEM cells. […] Still, whether and how LLC0424’s modest effect on GSPT1 contributes to the cytotoxic effects remains to be further explored. We also designed and synthesized the negative control LLC0877 bearing the warhead that is devoid of NSD2 binding (SI, Figure S5A).
as §2

SEM cells = experiment: Proliferation assay (CellTiter-Glo, 9 days), SEM; type: cell-based, human; conditions: 5 μM (Fig 6E) or 2 μM (Fig S4A)
Description: 2 × 10^3 cells per well were seeded in 5 replicates into 96-well plates and treated with 5 μM of the compound. Every 4 days, we added the compound with 5 μL of the 20* compound-containing mixture, reaching 1*concentration. Cell proliferation was evaluated by CellTiter-Glo assay (Promega).

T1 sequence (P15170 whole entry): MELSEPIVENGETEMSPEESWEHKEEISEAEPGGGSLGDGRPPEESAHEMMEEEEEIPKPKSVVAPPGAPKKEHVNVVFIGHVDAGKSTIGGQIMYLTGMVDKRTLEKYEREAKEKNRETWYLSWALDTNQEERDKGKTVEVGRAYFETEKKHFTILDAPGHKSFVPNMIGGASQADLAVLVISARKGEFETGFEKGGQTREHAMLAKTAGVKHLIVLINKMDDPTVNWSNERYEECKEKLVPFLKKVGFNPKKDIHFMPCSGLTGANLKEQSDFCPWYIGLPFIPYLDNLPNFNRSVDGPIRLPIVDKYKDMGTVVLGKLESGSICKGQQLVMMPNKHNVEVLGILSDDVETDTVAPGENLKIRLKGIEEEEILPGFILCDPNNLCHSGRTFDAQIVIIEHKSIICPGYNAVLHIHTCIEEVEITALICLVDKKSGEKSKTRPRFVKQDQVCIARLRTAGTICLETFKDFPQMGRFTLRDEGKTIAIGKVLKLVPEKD

Compound: O=C1CCC(N2C(=O)c3ccc(N4CCC(NC(=O)c5ccc(NC(=O)c6ccc(CN(C(=O)c7ccc8c(c7)OCC(=O)N8)C7CC7)cc6)cc5)CC4)cc3C2=O)C(=O)N1 (stereo not shown) [compound 10l, N-Cyclopropyl-N-(4-((4-((1-(2-(2,6-dioxopiperidin-3-yl)-1,3-dioxoisoindolin-5-yl)piperidin-4-yl)carbamoyl)phenyl)carbamoyl)benzyl)-3-oxo-3,4-dihydro-2H-benzo[b][1,4]oxazine-7-carboxamide]
- IC50 (RPMI-8402 cells): 0.56 µM
- CRBN neo-substrates protein level [1]: remained unchanged
- cell viability in NSD2-overexpressed versus parental SEM cells [2]: significantly higher in NSD2-overexpressed SEM cells
- GSPT1 level (GSPT1; RPMI-8402 cells, global proteomics and immunoblotting): significant decrease
- GSPT1 level on longer treatment (GSPT1; SEM cells, from 12 h): mild decrease
- GSPT1 degradation (GSPT1; SEM or VCaP cells, as long as 8 h): did not induce GSPT1 degradation
- cell growth on treatment for 9 days (SEM cells): significantly inhibited
